Data published in patent EP0319906A2, “Novel quinoline derivatives, processes for preparation thereof and antibacterial agent containing them” (Dainippon Pharmaceutical Co., Ltd., priority 1987, dated 1989).
Converted amounts (≈) assume the structure as drawn. Where two headings read alike, the source gives them in different places.

What was measured:
in vivo = settings: mouse, po
Experimental: A suspension containing each of compounds of this invention in various concentrations was orally given to male mice (ddY) at a dose of 0.1 ml per 10 g of body weight. The number of dead mice was counted after 7 days, and the value of median lethal dose (LD₅₀, mg/kg) was calculated in accordance with the Behrens-Kaerber method.

S. aureus No. 80 = experiment: In vitro antibacterial activity, twofold agar-dilution MIC; type: cell-based; settings: Staphylococcus aureus; S. aureus No. 80; Mueller-Hinton agar, 20-hour incubation at 37 °C; calculated for free base; read-out: minimum inhibitory concentrations (MIC)
Experimental: (§1) The figures in the table show minimum inhibitory concentrations (MIC) (µg/ml), calculated for free base. […] One loopful of an overnight culture of test organisms in Mueller-Hinton broth was inoculated onto 10 ml drug- containing agar layers in petri dishes. Bacterial inocula contained approximately 10⁶ colonyl-forming units. […] The MIC was defined as the lowest drug concentration which prevented visible bacterial growth.

E. coli P-5101 = experiment: as above; type: cell-based; settings: Escherichia coli, P5101; E. coli P-5101; Mueller-Hinton agar, 20-hour incubation at 37 °C; calculated for free base; read-out: minimum inhibitory concentrations (MIC)
Experimental: as §1

S. aureus Terajima = experiment: as above; type: cell-based; settings: Staphylococcus aureus; S. aureus Terajima; Mueller-Hinton agar, 20-hour incubation at 37 °C; calculated for free base; read-out: minimum inhibitory concentrations (MIC)
Experimental: as §1

S. pyogenes A65 = experiment: as above; type: cell-based; settings: Streptococcus pyogenes; S. pyogenes A65; Mueller-Hinton agar, 20-hour incubation at 37 °C; calculated for free base; read-out: minimum inhibitory concentrations (MIC)
Experimental: as §1

E. coli NIHJ JC-2 = experiment: as above; type: cell-based; settings: Escherichia coli, NIHJJC2; E. coli NIHJ JC-2; Mueller-Hinton agar, 20-hour incubation at 37 °C; calculated for free base; read-out: minimum inhibitory concentrations (MIC)
Experimental: as §1

S. epidermidis No. 8 = experiment: as above; type: cell-based; settings: Staphylococcus epidermidis; S. epidermidis No. 8; Mueller-Hinton agar, 20-hour incubation at 37 °C; calculated for free base; read-out: minimum inhibitory concentrations (MIC)
Experimental: as §1

S. marcescens S-9 = experiment: as above; type: cell-based; settings: Serratia marcescens, S9; S. marcescens S-9; Mueller-Hinton agar, 20-hour incubation at 37 °C; calculated for free base; read-out: minimum inhibitory concentrations (MIC)
Experimental: as §1

S. aureus 209 JC-1 = experiment: as above; type: cell-based; settings: Staphylococcus aureus, 209JC1; S. aureus 209 JC-1; Mueller-Hinton agar, 20-hour incubation at 37 °C; calculated for free base; read-out: minimum inhibitory concentrations (MIC)
Experimental: as §1

P. aeruginosa 12 = experiment: as above; type: cell-based; settings: Pseudomonas aeruginosa; P. aeruginosa 12; Mueller-Hinton agar, 20-hour incubation at 37 °C; calculated for free base; read-out: minimum inhibitory concentrations (MIC)
Experimental: as §1

[1] = test system: C. Trachomatics G/ur 1317; experiment: Antichlamydia activity, MIC in McCoy cells (inclusion bodies); type: cell-based; settings: C. Trachomatics G/ur 1317; McCoy cells, 36 °C for 40-48 hours; calculated for free base; read-out: minimum inhibitory concentrations (MIC)
Experimental: (§2) The figures in the table show minimum inhibitory concentrations (MIC), (μg/ml), calculated for free base. Minimum inhibitory concentrations (MIC) were determined as follows. […] The cells were trypsinized and suspended in the same culture medium at a cell concentration of 1-2 x 10^5 cells/ml. One ml of the cell suspension was pipetted into flat-bottomed plastic tubes (14 mm in diameter) containing a cover slip (12 mm in diameter). The tubes were incubated in 5 % CO2-air at 36 °C for 20 hours. One-half ml of a chlamydial suspension (ca. 1-4 x 103 inclusion body forming units) was added into each tube, which was then centrifuged at 1500 x g for 60 minutes. The tubes were incubated for 1 hour at 36 °C. […] After further incubation at 36 °C for 40-48 hours, the cells on the cover glasses were stained with the Giemsa's solution. […] The MIC was defined as the lowest drug concentration where there were no inclusion bodies in all the cells on the cover slip.

C. Trachomatics G/ur 931 = experiment: as above; type: cell-based; settings: C. Trachomatics G/ur 931; McCoy cells, 36 °C for 40-48 hours; calculated for free base; read-out: minimum inhibitory concentrations (MIC)
Experimental: as §2

[2] = test system: C. Trachomatics G/ur 1242; experiment: as above; type: cell-based; settings: C. Trachomatics G/ur 1242; McCoy cells, 36 °C for 40-48 hours; calculated for free base; read-out: minimum inhibitory concentrations (MIC)
Experimental: as §2

[3] = test system: C. Trachomatics G/ur 1448; experiment: as above; type: cell-based; settings: C. Trachomatics G/ur 1448; McCoy cells, 36 °C for 40-48 hours; calculated for free base; read-out: minimum inhibitory concentrations (MIC)
Experimental: as §2

M. fermentans PG-18 = experiment: Antimycoplasma activity, twofold agar dilution MIC; type: cell-based; settings: Mycoplasmopsis fermentans, PG18, 48 h; M. fermentans PG-18; Chanock agar, 37 °C for 2 days, anaerobically; calculated for free base; read-out: minimum inhibitory concentrations (MIC)
Experimental: (§3) The figures in the table show minimum inhibitory concentrations (MIC), (μg/ml), calculated for free base. Minimum inhibitory concentrations (MIC) were determined by the twofold agar dilution method. The media used were Chanock broth and agar [PPLD broth and agar (Difco) supplemented with 20 % horse serum and 10 % fresh yeast extract]. A 2-3 day broth culture of organisms was diluted with Chanock broth to a cell density of about 10^6 cells/ml. One loopful (about […]) of the organism dilution was spotted onto 10-ml drug containing Chanock agar in petri dishes using a multiple inoculator ([…] International). […] Incubation was performed anaerobically using the […] anaerobic system (BBL) for M. buccale, M. fermentans, M. hominis, M. orale and M. salivarium, and aerobically for other Mycoplasma spp. The MIC was defined as the lowest compound concentration at which no growth of organism was detected.

M. hominis PG-21 = experiment: Antimycoplasma activity, twofold agar dilution MIC; type: cell-based; settings: Metamycoplasma hominis, PG21, 48 h; M. hominis PG-21; Chanock agar, 37 °C for 2 days, anaerobically; calculated for free base; read-out: minimum inhibitory concentrations (MIC)
Experimental: as §3

M. salivarium PG-20 = experiment: Antimycoplasma activity, twofold agar dilution MIC; type: cell-based; settings: 48 h; M. salivarium PG-20; Chanock agar, 37 °C for 2 days, anaerobically; calculated for free base; read-out: minimum inhibitory concentrations (MIC)
Experimental: as §3

M. pneumoniae Mac = experiment: Antimycoplasma activity, twofold agar dilution MIC; type: cell-based; settings: Mycoplasmoides pneumoniae, 168 h; M. pneumoniae Mac; Chanock agar, 37 °C for 7 days, aerobically; calculated for free base; read-out: minimum inhibitory concentrations (MIC)
Experimental: as §3

M. arginini G-230 = experiment: Antimycoplasma activity, twofold agar dilution MIC; type: cell-based; settings: 48 h; M. arginini G-230; Chanock agar, 37 °C for 2 days, aerobically; calculated for free base; read-out: minimum inhibitory concentrations (MIC)
Experimental: as §3

M. orale CH-19299 = experiment: Antimycoplasma activity, twofold agar dilution MIC; type: cell-based; settings: po, 48 h; M. orale CH-19299; Chanock agar, 37 °C for 2 days, anaerobically; calculated for free base; read-out: minimum inhibitory concentrations (MIC)
Experimental: as §3

M. hyorhinis BST-7 = experiment: Antimycoplasma activity, twofold agar dilution MIC; type: cell-based; settings: Mesomycoplasma hyorhinis, BST7, 48 h; M. hyorhinis BST-7; Chanock agar, 37 °C for 2 days, aerobically; calculated for free base; read-out: minimum inhibitory concentrations (MIC)
Experimental: as §3

M. buccale CH-20249 = experiment: Antimycoplasma activity, twofold agar dilution MIC; type: cell-based; settings: 48 h; M. buccale CH-20249; Chanock agar, 37 °C for 2 days, anaerobically; calculated for free base; read-out: minimum inhibitory concentrations (MIC)
Experimental: as §3

A. laidlawii PG-8 = experiment: Antimycoplasma activity, twofold agar dilution MIC; type: cell-based; settings: Acholeplasma laidlawii, PG8, 48 h; A. laidlawii PG-8; Chanock agar, 37 °C for 2 days, aerobically; calculated for free base; read-out: minimum inhibitory concentrations (MIC)
Experimental: as §3

Structure (SMILES) | MIC (S. aureus No. 80) | MIC (E. coli P-5101) | MIC (S. aureus Terajima) | MIC (S. pyogenes A65) | MIC (E. coli NIHJ JC-2) | MIC (S. epidermidis No. 8) | MIC (S. marcescens S-9) | MIC (S. aureus 209 JC-1) | MIC (P. aeruginosa 12) | MIC [1] | MIC (C. Trachomatics G/ur 931) | MIC [2] | MIC [3] | other results
Cc1c(F)c(N2CCC(N)C2)c(F)c2c1c(=O)c(C(=O)O)cn2C1CC1 (stereo not shown) [Compound 3, 7-(3-amino-1-pyrrolidinyl)-1-cyclopropyl-6,8-difluoro-5-methyl-1,4-dihydro-4-oxoquinoline-3-carboxylic acid] | 0.0125 µg/mL (≈ 0.0344 µM) | 0.0125 µg/mL (≈ 0.0344 µM) | 0.0125 µg/mL (≈ 0.0344 µM) | 0.2 µg/mL (≈ 0.55 µM) | 0.0125 µg/mL (≈ 0.0344 µM) | 0.0125 µg/mL (≈ 0.0344 µM) | 0.05 µg/mL (≈ 0.138 µM) | 0.0125 µg/mL (≈ 0.0344 µM) | 0.2 µg/mL (≈ 0.55 µM) | 0.013 µg/mL (≈ 0.0358 µM) | 0.013 µg/mL (≈ 0.0358 µM) | 0.013 µg/mL (≈ 0.0358 µM) | 0.013 µg/mL (≈ 0.0358 µM) | LD50 at 7 days (in vivo; male, ddY): > 2000 mg/kg
Cc1c(F)c(N2CCNCC2)cc2c1c(=O)c(C(=O)O)cn2C1CC1 [Compound 5, 1-cyclopropyl-6-fluoro-5-methyl-7-(1-piperazinyl)-1,4-dihydro-4-oxoquinoline-3-carboxylic acid] | 0.0125 µg/mL (≈ 0.0362 µM) | 0.0125 µg/mL (≈ 0.0362 µM) | 0.025 µg/mL (≈ 0.0724 µM) | 0.39 µg/mL (≈ 1.13 µM) | 0.0125 µg/mL (≈ 0.0362 µM) | 0.025 µg/mL (≈ 0.0724 µM) | 0.2 µg/mL (≈ 0.579 µM) | 0.05 µg/mL (≈ 0.145 µM) | 0.1 µg/mL (≈ 0.29 µM) |  |  |  |  | LD50 at 7 days (in vivo; orally given to male mice (ddY), dead mice counted after 7 days, Behrens-Kaerber method, read-out: LD₅₀): > 2000 mg/kg
C[C@@H]1CN(c2c(F)cc3c(=O)c(C(=O)O)cn(C4CC4)c3c2F)C[C@H](C)N1 [Compound C, 1-cyclopropyl-6,8-difluoro-7-(cis-3,5-dimethyl-1-piperazinyl)-1,4-dihydro-4-oxoquinoline-3-carboxylic acid] | 0.1 µg/mL (≈ 0.265 µM) | 0.0125 µg/mL (≈ 0.0331 µM) | 0.1 µg/mL (≈ 0.265 µM) | 0.78 µg/mL (≈ 2.07 µM) | 0.0125 µg/mL (≈ 0.0331 µM) | 0.1 µg/mL (≈ 0.265 µM) | 0.2 µg/mL (≈ 0.53 µM) | 0.1 µg/mL (≈ 0.265 µM) | 0.78 µg/mL (≈ 2.07 µM) | 0.2 µg/mL (≈ 0.53 µM) | 0.2 µg/mL (≈ 0.53 µM) | 0.2 µg/mL (≈ 0.53 µM) | 0.2 µg/mL (≈ 0.53 µM) | MIC (M. fermentans PG-18): 0.1 µg/mL (≈ 0.265 µM); MIC (M. hominis PG-21): 0.2 µg/mL (≈ 0.53 µM); MIC (M. salivarium PG-20): 0.78 µg/mL (≈ 2.07 µM); MIC (M. pneumoniae Mac): 0.2 µg/mL (≈ 0.53 µM); MIC (M. arginini G-230): 0.39 µg/mL (≈ 1.03 µM); MIC (M. orale CH-19299): 0.78 µg/mL (≈ 2.07 µM); MIC (M. hyorhinis BST-7): 0.1 µg/mL (≈ 0.265 µM); MIC (M. buccale CH-20249): 0.2 µg/mL (≈ 0.53 µM); MIC (A. laidlawii PG-8): 0.39 µg/mL (≈ 1.03 µM)
